# In patent US9636317B2, “Compositions and methods of use of phorbol esters” (priority 2007, dated 2017):
# Several values for one entry are separate records, joined by “and”; a condition that tells them apart may be missing. Identical values can stand only once. Entries after “also recorded” stand apart in the source; their conditions may differ.
# Experiments:
# [1] = Anti-aging properties of TPA (patient case); type: in vivo, human; conditions: 1.25 ampoules of 0.125 mg/m^2 every other day for two months
# Procedure: Patient eight, person, was being treated for prostate hypertrophy with 1.25 ampoules of 0.125 mg/m^2 every other day for two months.
# [2] = test system: relapsed/refractory AML, other myeloid malignancies, Hodgkin's Disease, non-Hodgkin's lymphoma, solid tumors; experiment: TPA Phase 1 study in relapsed/refractory malignancies; type: in vivo
# Description: An initial TPA Phase 1 study enrolled 35 patients [23 with relapsed/refractory AML, 2 with other myeloid malignancies (CML-blast crisis, myelodysplasia with excess blasts), 3 with Hodgkin's Disease, 3 with non-Hodgkin's lymphoma and 4 with solid tumors]. The majority of patients had relapsed/refractory AML. Our clinical results include one AML patient with stable disease for >5 months, who received 8 TPA infusions. In a second AML patient, a pronounced (5-fold) decline in the number of circulating blasts was seen following TPA administration. This decline in leukemic blasts persisted for 4 weeks, and the patient eventually died from a fungal infection.
# lymphoma = experiment: Treatment of lymphoma (patient case); type: in vivo, human
# Description: Patient five was diagnosed with a re-occurrence of lymphoma and a mass of 3.5 cm in diameter. […] As of 2011, they have been in remission for three years.
# [3] = Treatment of Parkinson's disease (patient case); type: in vivo, human; conditions: 0.19, 0.24, 0.26 mg TPA every other day over 9 weeks
# Procedure: Patient two was diagnosed with Parkinson's disease. They were injected with 1 ampoule containing 0.19 mg of TPA (0.125 mg/m^2) TPA every other day for four weeks, then 0.24 mg of TPA (1.25×0.125 mg/m^2) every other day for 2 weeks, and 0.26 mg of TPA (1.5×0.125 mg/m^2) every other day for an additional 3 weeks.
# metastatic liver cancer = experiment: Treatment of liver cancer (patient case); type: in vivo, human; conditions: three injections of 0.19 mg TPA; before 50,000+
# Description: Patient X, age ? was diagnosed with metastatic liver cancer. Their initial alpha fetoprotein level was 48,813. They were given chemotherapy and radiation treatments but their alpha fetoprotein level remained elevated at 50,000+.
# HIV [4] = experiment: First clinical study of HIV+ patients: blood HIV count; type: in vivo
# Procedure: (§1) Twelve symptomatic patients (five males and seven females) between the ages of 35 to 52 all of whom were infected with HIV in 1995 through blood transfusion and were refractory to standard treatments for HIV were treated with TPA. Each patient was administered a weight adjusted dosage of TPA (75 μg/sq m) in 200 ml of sterile saline by i.v. over one hour. This dose was administered once daily for the first three days of treatment. Each patient was then given this dose every other day for days 4 to 18 followed by a six month rest period prior to a second course of treatment according to the same protocol.
# [5] = Treatment of carpal tunnel syndrome (patient case); type: in vivo, human
# Description: Patient with burning, tingling, pain and numbness in their fingers.
# HIV [6] = experiment: Second clinical study of HIV+ patients: blood HIV count; type: in vivo; conditions: for BLOOD HIV COUNT LOG VALUE / BLOOD HIV COUNT RESULTS: one value per patient
# Procedure: Nine of the patients in Example III were given a second treatment of TPA. Of these nine, seven were asymptomatic at the beginning of the second trial. A tenth patient (patient #2a) who was symptomatic and had not previously been treated with TPA was added to the study. Each patient was administered a weight adjusted dosage of TPA (75 μg/sq m) in 200 ml of sterile saline intravenously over one hour. This dosage was given to each patient once a day for ten consecutive days followed by a rest period of ten days for three cycles and a total of 30 doses of TPA. Patients 5a, 6a, and 8a stopped taking anti-AIDS drugs one month prior to beginning the TPA treatment and beginning again one month after the third cycle. Patients 1-4-a, 7a, and 9a-10a continued taking anti-AIDS drugs throughout the treatment.
# Blood samples were taken three days prior to starting treatment, after completing the first 10 day cycle of TPA infusion and again after the last TPA infusion and CD3, CD4, CD8, WBC, RBC, HGB and platelets were measured.
# [7] = test system: HIV-cytopathic effects on MT-4 cells; conditions: cited from earlier work
# [8] = Reduction of periorbital hyperpigmentation; type: in vivo, human; conditions: 6 women and 1 man
# Procedure: 6 women and 1 man with excessive periorbital hyperpigmentation were treated with TPA.
# [9] = Treatment of individuals who have suffered a stroke (patient cases); type: in vivo, human
# Procedure: Patient seven, suffered a stroke eighteen months prior to treatment with TPA. At the time TPA treatment was initiated, they were unable to walk without a cane, had difficulty with both their left hand and left leg and was tired and weak. They received injections of 1 ampoule containing 0.19 mg of TPA (0.125 mg/m^2) every other day for four weeks, then 0.24 mg of TPA (1.25×0.125 mg/m^2) every other day for 2 weeks, and then 0.26 mg of TPA (1.5×0.125 mg/m^2) every other day for an additional 3 weeks.
# Patient four, suffered a stroke seven years prior to beginning treatment with TPA. They received 3-4 injections of 0.19 mg of TPA (0.125 mg/m^2) per week for ten weeks for a total of 35 injections.
# symptomatic HIV patients = experiment: First clinical study of HIV+ patients: symptoms and side effects (incl. case studies); type: in vivo, human
# Procedure: as §1
# Results of treatment of initially symptomatic AIDS patients treated with TPA according to the protocols of Example III, IV, and V. Patients who participated in multiple studies are in some cases identified by more than one patient number. All patient identification numbers correspond to the patient numbers in Tables 1-7.
# [10] = 15th day during TPA (patient 07)
# [11] = 4 days after initial TPA, one value per patient
# [12] = 15 days after initial TPA, one value per patient
# [13] = 25 days after initial TPA, one value per patient
# [14] = protocol of Example III (first or repeat course)
# [15] = protocol of Example III (first or repeat course), individual patients
# [16] = twelve symptomatic HIV patients
structure (smiles),measurement,setting,value
"CCCCCCCCCCCCCC(=O)O[C@@H]1[C@@H](C)[C@@]2(O)[C@@H](C=C(CO)C[C@]3(O)C(=O)C(C)=C[C@@H]23)[C@@H]2C(C)(C)[C@]12OC(C)=O [TPA, 12-O-tetradecanoylphorbol-13-acetate]",skin,[1],their skin became softer and had fewer wrinkles
same,patients with grade III non-hematologic dose limiting toxicities (DLT),"[2]; 0.188 mg/m2 d1-5, 8-12",2 out of 3
same,maximum tolerated TPA dose as a single agent,[2]; d1-5 and 8-12,0.125 mg/m2/d
same,duration of stable disease,"[2]; one AML patient, 8 TPA infusions",> 5 months
same,response of relapsed and refractory Hodgkin's disease,[2]; one patient,partial remission of a chest wall mass
same,persistence of the decline in leukemic blasts,[2]; second AML patient,4 weeks
same,decline in the number of circulating blasts,"[2]; second AML patient, following TPA administration",5 fold
same,lymphoma mass (3.5 cm in diameter),lymphoma; 15 injections of 0.19 mg TPA every other day for 30 days,the mass disappeared
same,duration of remission,lymphoma; as of 2011,three years
same,tremors,[3],no longer displaying tremors
same,alpha fetoprotein levels,metastatic liver cancer,returned to normal levels within four months
same,BLOOD HIV COUNT LOG VALUE,HIV [4]; [10],4.988
same,BLOOD HIV COUNT RESULTS,HIV [4]; [10],9.74 × 10^4 copies/ml
same,BLOOD HIV COUNT LOG VALUE,HIV [4]; [11],6.899 and 4.910 and 7.243 and 5.974 and 4.160 and 5.179 and 5.959 and 6.151
same,BLOOD HIV COUNT RESULTS,HIV [4]; [11],7.92 × 10^6 copies/ml and 8.13 × 10^4 copies/ml and 1.75 × 10^7 copies/ml and 9.42 × 10^5 copies/ml and 1.44 × 10^4 copies/ml and 1.51 × 10^5 copies/ml and 9.09 × 10^5 copies/ml and 1.41 × 10^4 copies/ml
same,BLOOD HIV COUNT LOG VALUE,HIV [4]; 7 days after TPA (patient 06),6.357
same,BLOOD HIV COUNT RESULTS,HIV [4]; 7 days after TPA (patient 06),2.28 × 10^6 copies/ml
same,BLOOD HIV COUNT LOG VALUE,HIV [4]; [12],4.306 and 6.801 and 3.786 and 6.614 and 7.369 and 5.274 and 6.737
same,BLOOD HIV COUNT RESULTS,HIV [4]; [12],2.02 × 10^4 copies/ml and 6.33 × 10^6 copies/ml and 6.11 × 10^3 copies/ml and 1.11 × 10^6 copies/ml and 2.34 × 10^7 copies/ml and 1.88 × 10^5 copies/ml and 5.46 × 10^6 copies/ml
same,BLOOD HIV COUNT LOG VALUE,HIV [4]; [13],4.416 and 6.941 and 5.934 and 4.084 and 6.745 and 3.724 and 6.890
same,BLOOD HIV COUNT RESULTS,HIV [4]; [13],2.60 × 10^4 copies/ml and 8.72 × 10^6 copies/ml and 8.59 × 10^5 copies/ml and 1.21 × 10^4 copies/ml and 5.56 × 10^6 copies/ml and 5.30 × 10^3 copies/ml and 7.77 × 10^6 copies/ml and undetectable
same,BLOOD HIV COUNT LOG VALUE,"HIV [4]; 25 days after initial TPA, sample taken from the second cycle treatment (patients 10-12)",4.446 and 5.096 and 3.798
same,change of viral load (summary of Table 2),HIV [4]; twelve patients,five patients having an increase in HIV and no change or a reduction in seven others
same,use of hands,[5],regained full use of their hands
same,BLOOD HIV COUNT LOG VALUE,HIV [6]; after first cycle TPA infusion,5.490 and 2.371 and 4.825 and 5.217 and 5.450 and 5.475
same,BLOOD HIV COUNT RESULTS,HIV [6]; after first cycle TPA infusion,3.09 × 10^5 copies/ml and lower the 500 copies/ml and undetectable (4×) and 6.68 × 10^4 copies/ml and 1.65 × 10^5 copies/ml and 2.82 × 10^5 copies/ml and 2.99 × 10^5 copies/ml
same,BLOOD HIV COUNT LOG VALUE,HIV [6]; after third cycle TPA infusion,5.966 and 3.980 and 3.376 and 4.792 and 5.371 and 5.270 and 5.973
same,BLOOD HIV COUNT RESULTS,HIV [6]; after third cycle TPA infusion,9.24 × 10^5 copies/ml and 9.55 × 10^3 copies/ml and 2.38 × 10^3 copies/ml and undetectable (3×) and 6.20 × 10^4 copies/ml and 2.35 × 10^5 copies/ml and 1.86 × 10^5 copies/ml and 9.41 × 10^5 copies/ml
same,viral load of HIV (summary),HIV [6]; ten patients,undetectable in three patients (<200); it increased somewhat in six others and was reduced in one
same,HIV-cytopathic effects,[7],inhibit the HIV-cytopathic effects on MT-4 cells
same,inflammation and hyperpigmentation in the periorbital area,[8],reduced the inflammation and hyperpigmentation in the periorbital area
same,recovery after stroke,"[9]; stroke eighteen months before, 0.19, 0.24, 0.26 mg TPA every other day over 9 weeks",recovered fully
same,mobility in their face,"[9]; stroke seven years before, 35 injections of 0.19 mg TPA",regained mobility in their face
same,improvement in the mobility of their right side,"[9]; stroke seven years before, 35 injections of 0.19 mg TPA in ten weeks",80%
same,duration of shortness of breath,"symptomatic HIV patients; first treatment with TPA, individual patients",15 min
same,platelet count after TPA treatment,"symptomatic HIV patients; patient #10, rose from 30,000","110,000 per microliter"
same,other side effects during TPA treatment (individual patient),symptomatic HIV patients; protocol of Example III,did not experience an increase in body temperature or any other side effect; also recorded: mild dizziness and headache; also recorded: serious skin irritation; also recorded: skin irritation due to a leaking needle
same,symptom free period after TPA therapy (individual patient),symptomatic HIV patients; [14],five months; also recorded: one year
same,symptoms after treatment with TPA (individual patient),symptomatic HIV patients; [14],"gradual improvement in symptoms; also recorded: their oral lesions, skin thrush and fever disappeared; also recorded: marked improvement in their symptoms; also recorded: The lymph node returned to normal size; also recorded: no improvement in symptoms occurred; also recorded: their symptoms remained unchanged; also recorded: the frequency of their colds decreased; also recorded: their diarrhea was completely gone; also recorded: their dizziness, headache and diarrhea gradually lessened; also recorded: the dizziness, headache, fever and skin thrush were improving and gradually faded away; also recorded: their symptoms disappeared completely; also recorded: all their symptoms disappeared"
same,duration of the increase in body temperature,symptomatic HIV patients; [15],1-2 hours and four and 4 hours
same,increase in body temperature during TPA treatment,symptomatic HIV patients; [15],38-39 °C and 38 °C and 38.5 °C
same,additional patients with a decrease in symptoms,symptomatic HIV patients; [16],Three additional patients had a decrease in symptoms
same,patients who became symptom free,symptomatic HIV patients; [16],Eight patients became symptom free
same,patients with significant improvement following treatment,"symptomatic HIV patients; twelve symptomatic HIV patients, 75 μg/sq m i.v.",eleven of the patients showed significant improvement
